Measurements as given in US12295997B2, “Prostate neoantigens and their uses” (Janssen Biotech, Inc., priority 2020, dated 2025).

B1: P19 (peptide, listed as Homo sapiens)
chain: WTPIPVLTRWPLPHPPPWRRATSCRMARSSPSATSGSSVRRRCSSLPSWVWNLAASTRPRSTPS

System: CD8+ and CD4+ T cells (autologous CD3+ Pan-T cells isolated from human normal PBMCs)
Assay: Exogenous autologous normal donor restimulation assay (15-mer overlapping peptide pools on CD1c+ dendritic cells, TNFα/IFNγ flow cytometry)
Type: cell-based
Settings: 15-mer overlapping peptide pool; for Maximum Fold Change Over Background CD4+ cells / Maximum Fold Change Over Background CD8+ cells / Maximum Frequency of TNFα/IFNγ Double Positive CD4+ T cells / Maximum Frequency of TNFα/IFNγ Double Positive CD8+ T cells: Table 25; for Maximum Fold Change Over Background CD4+ cells: TNFα+IFNγ+ CD4+ T cells; for Maximum Fold Change Over Background CD4+ cells / Maximum Fold Change Over Background CD8+ cells: highest fold change over negative control across normal donors; for Maximum Fold Change Over Background CD8+ cells: TNFα+IFNγ+ CD8+ T cells; for Maximum Frequency of TNFα/IFNγ Double Positive CD4+ T cells / Maximum Frequency of TNFα/IFNγ Double Positive CD8+ T cells: highest frequency across normal donors
Method in brief: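 Readout was intracellular TNFα/IFNγ flow cytometry on live CD3+ CD8+ and CD4+ cells after day-11 peptide restimulation. Stimulators were CD1c+ dendritic cells loaded with overlapping 15-mer peptide pools (2.5–10 μg/mL), irradiated, and cultured 12 days with autologous normal-donor Pan-T cells plus IL-15/IL-2. A response counted when ≥3-fold over DMSO control and at least 0.01%.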

[1] = Table 28, additional neoantigens, highest across normal donors

Molecule | Maximum Fold Change Over Background CD4+ cells | Maximum Fold Change Over Background CD8+ cells | Maximum Frequency of TNFα/IFNγ Double Positive CD4+ T cells | Maximum Frequency of TNFα/IFNγ Double Positive CD8+ T cells | Max. Fold Change over background CD4+ TNFαINFγ double positive DP [1] | Max. Fold Change over background CD8+ TNFαINFγ double positive DP [1] | Max. Frequency of CD4+ TNFαINFγ DP [1] | Max. Frequency of CD8+ TNFαINFγ DP [1]
SLYHREKQLIAMDSAI (listed as Homo sapiens) [Neoantigen P22] | 18.16 | 1.56 | 0.075 | 0.025 |  |  |  | 
YEAGMTLGEKFRVGNCKHLKMTRP (listed as Homo sapiens) [Neoantigen P82] | 4.44 | 2.92 | 0.17 | 0.09 |  |  |  | 
YEAGMTLGGKILFFLFLLLPLSPFSLIF (listed as Homo sapiens) [Neoantigen P87] | 7.86 | 9.20 | 0.110 | 0.460 |  |  |  | 
B1 |  |  |  |  | 6.67 | 4.76 | 0.16 | 0.15
